# Assay results reported in ChEMBL document CHEMBL1201862, “PubChem BioAssay data set” (2004).
#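 48-hour exposure; five concentrations; linearly interpolated endpoints. At the GI50, growth is halved.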 Activity calls are given as the source filed them. Cut-off read from the data, not from the text of the source: active = GI50 up to about 1.1 µM and inactive = higher.
# Tests used:
# Experiment in all cases: NCI-60 cell line screen, 48 h
# [1] = tested on: RPMI-8226
# [2] = tested on: NCI-H522
# [3] = tested on: OVCAR-8
# [4] = tested on: OVCAR-3
# [5] = tested on: IGROV-1
# [6] = tested on: Malme-3M
# [7] = tested on: M14
# [8] = tested on: LOX IMVI
# [9] = tested on: SNB-78
# [10] = tested on: SNB-75
# [11] = tested on: RXF 393
# [12] = tested on: CCRF-CEM
# [13] = tested on: MOLT-4
# [14] = tested on: HOP-62
# [15] = tested on: KM12
# [16] = tested on: HOP-92
# [17] = tested on: SW-620
# [18] = tested on: DLD-1
# [19] = tested on: CAKI-1
# [20] = tested on: NCI-H23
# [21] = tested on: SK-OV-3
# [22] = tested on: COLO 205
# [23] = tested on: K562
# [24] = tested on: UO-31
# [25] = tested on: RXF 631
# [26] = tested on: SK-MEL-2
# [27] = tested on: LXFL 529
# [28] = tested on: DMS-273
# [29] = tested on: 786-0
# [30] = tested on: OVCAR-5
# [31] = tested on: TK-10
# [32] = tested on: OVCAR-4
# [33] = tested on: SN12C
# [34] = tested on: SF-295
# [35] = tested on: HCC 2998
# [36] = tested on: HCT-15
# [37] = tested on: NCI-H460
# [38] = tested on: SK-MEL-28
# [39] = tested on: XF498
# [40] = tested on: SNB-19
# [41] = tested on: EKVX
# [42] = tested on: A549
# [43] = tested on: UACC-257
# [44] = tested on: KM-20L2
# [45] = tested on: SF-268
# [46] = tested on: HL-60
# [47] = tested on: UACC-62
# [48] = tested on: M19-MEL
# [49] = tested on: ACHN
# [50] = tested on: SK-MEL-5
# [51] = tested on: U-251
# [52] = tested on: DMS-114
# [53] = tested on: HCT-116
# [54] = tested on: NCI-H226
# [55] = tested on: SR
# [56] = tested on: A498
# [57] = tested on: HOP-18
# [58] = tested on: SF-539
# [59] = tested on: HT-29
smiles,measurement,setting,value
COc1cc(OC)cc(N2CCC(c3c(N)nc(N)nc3Cl)CC2)c1,GI50,[1],16.9 µM (inactive)
same,GI50,[2],41.3 µM (inactive)
same,GI50,[3],> 100 µM (inactive)
same,GI50,[4],83.9 µM (inactive)
same,GI50,[5],> 100 µM (inactive)
same,GI50,[6],31 µM (inactive)
same,GI50,[7],75.3 µM (inactive)
same,GI50,[8],> 100 µM (inactive)
same,GI50,[9],> 100 µM (inactive)
same,GI50,[10],47.6 µM (inactive)
same,GI50,[11],> 100 µM (inactive)
same,GI50,[12],47.1 µM (inactive)
same,GI50,[13],31.5 µM (inactive)
same,GI50,[14],62.2 µM (inactive)
same,GI50,[15],66.4 µM (inactive)
same,GI50,[16],48.4 µM (inactive)
same,GI50,[17],65 µM (inactive)
same,GI50,[18],75.7 µM (inactive)
same,GI50,[19],> 100 µM (inactive)
same,GI50,[20],> 100 µM (inactive)
same,GI50,[21],> 100 µM (inactive)
same,GI50,[22],58.1 µM (inactive)
same,GI50,[23],31.6 µM (inactive)
same,GI50,[24],62.8 µM (inactive)
same,GI50,[25],> 100 µM (inactive)
same,GI50,[26],92.3 µM (inactive)
same,GI50,[27],37.8 µM (inactive)
same,GI50,[28],> 100 µM (inactive)
same,GI50,[29],> 100 µM (inactive)
same,GI50,[30],> 100 µM (inactive)
same,GI50,[31],> 100 µM (inactive)
same,GI50,[32],91.8 µM (inactive)
same,GI50,[33],> 100 µM (inactive)
same,GI50,[34],83 µM (inactive)
same,GI50,[35],67.5 µM (inactive)
same,GI50,[36],99.5 µM
same,GI50,[37],53.7 µM (inactive)
same,GI50,[38],52.8 µM (inactive)
same,GI50,[39],26.3 µM (inactive)
same,GI50,[40],> 100 µM (inactive)
same,GI50,[41],95.3 µM (inactive)
same,GI50,[42],65 µM (inactive)
same,GI50,[43],43.7 µM (inactive)
same,GI50,[44],> 100 µM (inactive)
same,GI50,[45],98.2 µM (inactive)
same,GI50,[46],18 µM (inactive)
same,GI50,[47],52.6 µM (inactive)
same,GI50,[48],> 100 µM (inactive)
same,GI50,[49],70.5 µM (inactive)
same,GI50,[50],24.8 µM (inactive)
CCOC(=O)c1[nH]c(COC(C)=O)c2c1CCCCCCCCCC2,GI50,[1],> 100 µM (inactive)
same,GI50,[2],> 100 µM (inactive)
same,GI50,[3],> 100 µM (inactive)
same,GI50,[4],> 100 µM (inactive)
same,GI50,[5],> 100 µM (inactive)
same,GI50,[6],> 100 µM (inactive)
same,GI50,[7],> 100 µM (inactive)
same,GI50,[8],> 100 µM (inactive)
same,GI50,[51],> 100 µM (inactive)
same,GI50,[9],> 100 µM (inactive)
same,GI50,[10],> 100 µM (inactive)
same,GI50,[11],> 100 µM (inactive)
same,GI50,[12],> 100 µM (inactive)
same,GI50,[13],> 100 µM (inactive)
same,GI50,[14],> 100 µM (inactive)
same,GI50,[52],> 100 µM (inactive)
same,GI50,[15],> 100 µM (inactive)
same,GI50,[16],> 100 µM (inactive)
same,GI50,[17],> 100 µM (inactive)
same,GI50,[18],> 100 µM (inactive)
same,GI50,[19],> 100 µM (inactive)
same,GI50,[20],> 100 µM (inactive)
same,GI50,[21],> 100 µM (inactive)
same,GI50,[53],> 100 µM (inactive)
same,GI50,[22],> 100 µM (inactive)
same,GI50,[23],> 100 µM (inactive)
same,GI50,[24],> 100 µM (inactive)
same,GI50,[26],> 100 µM (inactive)
same,GI50,[54],> 100 µM (inactive)
same,GI50,[27],> 100 µM (inactive)
same,GI50,[55],> 100 µM (inactive)
same,GI50,[28],> 100 µM (inactive)
same,GI50,[29],> 100 µM (inactive)
same,GI50,[30],> 100 µM (inactive)
same,GI50,[31],> 100 µM (inactive)
same,GI50,[56],> 100 µM (inactive)
same,GI50,[57],> 100 µM (inactive)
same,GI50,[32],> 100 µM (inactive)
same,GI50,[33],> 100 µM (inactive)
same,GI50,[34],> 100 µM (inactive)
same,GI50,[35],> 100 µM (inactive)
same,GI50,[36],> 100 µM
same,GI50,[58],> 100 µM (inactive)
same,GI50,[37],> 100 µM (inactive)
same,GI50,[39],> 100 µM (inactive)
same,GI50,[40],> 100 µM (inactive)
same,GI50,[41],> 100 µM (inactive)
same,GI50,[42],> 100 µM (inactive)
same,GI50,[43],> 100 µM (inactive)
same,GI50,[44],> 100 µM (inactive)
same,GI50,[45],> 100 µM (inactive)
same,GI50,[59],> 100 µM (inactive)
same,GI50,[46],> 100 µM (inactive)
same,GI50,[47],> 100 µM (inactive)
same,GI50,[48],> 100 µM (inactive)
same,GI50,[50],> 100 µM (inactive)
